In ChEMBL document CHEMBL4411309, “Discovery of 2-substituted-N-(3-(3,4-dihydroisoquinolin-2(1H)-yl)-2-hydroxypropyl)-1,2,3,4-tetrahydroisoquinoline-6-carboxamide as potent and selective protein arginine methyltransferases 5 inhibitors: Design, synthesis and biological evaluation” (Eur J Med Chem, 2019):

Assays:
[1] = biological target: PRMT5/MEP50 complex (Homo sapiens, UniProt O14744); assay: Inhibition of recombinant human N-terminal FLAG-tagged PRMT5 (2 to end residues)/human N-terminal His-tagged MEP50 (2 to end residues) expressed in HEK293F cells using H4 peptide as substrate preincubated for 15 mins followed by substrate and [3H]SAM addition and measured after 1 hr by scintillation counting method
[2] = system: MV4-11; assay: Antiproliferative activity against human MV4-11 cells supplemented with fresh medium containing compound every 4 days measured on day 12 by Celltiter-glo luminescent cell viability assay; type: functional
[3] = system: MV4-11; assay: Antiproliferative activity against human MV4-11 cells supplemented with fresh medium containing compound every 4 days measured on day 8 by Celltiter-glo luminescent cell viability assay; type: functional
[4] = biological target: Protein arginine N-methyltransferase 5 (Homo sapiens) (UniProt O14744); assay: Inhibition of PRMT5 in human MV411 cells assessed as reduction in SmD3 methylation after 4 days by Western blot analysis; type: cell-based
[5] = Cmax in Sprague-Dawley rat at 10 mg/kg, po administered via gavage by LC-MS/MS analysis; type: ADME, organism-based; set-up: dose 10 mg/kg, route oral; conditions: in vivo
[6] = Tmax in Sprague-Dawley rat at 10 mg/kg, po administered via gavage by LC-MS/MS analysis; type: ADME, organism-based; conditions: in vivo
[7] = Elimination half life in Sprague-Dawley rat at 10 mg/kg, po administered via gavage by LC-MS/MS analysis; type: ADME, organism-based; conditions: in vivo, read-out: beta t1/2 (converted)
[8] = AUC in Sprague-Dawley rat at 10 mg/kg, po administered via gavage by LC-MS/MS analysis; type: ADME, organism-based; conditions: in vivo

Chain of PRMT5/MEP50 complex (O14744 whole entry): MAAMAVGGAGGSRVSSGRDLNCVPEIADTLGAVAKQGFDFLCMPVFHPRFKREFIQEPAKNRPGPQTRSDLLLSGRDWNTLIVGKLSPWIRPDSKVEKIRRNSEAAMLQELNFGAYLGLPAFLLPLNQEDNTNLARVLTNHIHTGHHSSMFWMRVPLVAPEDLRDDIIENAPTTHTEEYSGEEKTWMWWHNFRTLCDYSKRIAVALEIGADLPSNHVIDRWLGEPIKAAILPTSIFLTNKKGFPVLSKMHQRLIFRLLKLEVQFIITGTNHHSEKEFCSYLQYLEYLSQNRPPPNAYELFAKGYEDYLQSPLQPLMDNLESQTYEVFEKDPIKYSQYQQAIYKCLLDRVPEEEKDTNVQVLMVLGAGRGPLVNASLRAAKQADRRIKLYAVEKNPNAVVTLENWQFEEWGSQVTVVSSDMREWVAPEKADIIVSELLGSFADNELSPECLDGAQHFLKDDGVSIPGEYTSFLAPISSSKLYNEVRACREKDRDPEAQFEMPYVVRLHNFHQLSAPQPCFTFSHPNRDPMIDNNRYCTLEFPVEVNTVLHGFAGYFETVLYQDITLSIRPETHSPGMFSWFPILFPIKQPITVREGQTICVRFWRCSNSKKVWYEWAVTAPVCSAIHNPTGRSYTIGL
Chain of PRMT5/MEP50 complex (Q9BQA1 whole entry, further chain): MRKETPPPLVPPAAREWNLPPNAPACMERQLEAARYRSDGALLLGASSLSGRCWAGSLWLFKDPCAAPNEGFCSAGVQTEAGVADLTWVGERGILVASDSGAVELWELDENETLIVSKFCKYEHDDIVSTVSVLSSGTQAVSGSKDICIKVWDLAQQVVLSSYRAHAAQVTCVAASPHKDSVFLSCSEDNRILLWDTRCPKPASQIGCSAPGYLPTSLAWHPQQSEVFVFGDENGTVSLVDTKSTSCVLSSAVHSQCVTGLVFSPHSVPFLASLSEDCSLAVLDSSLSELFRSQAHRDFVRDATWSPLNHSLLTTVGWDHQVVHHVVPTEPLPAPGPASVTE
Chain of Protein arginine N-methyltransferase 5 (Homo sapiens) (O14744 whole entry): as the sequence (O14744 whole entry) above

Compound | IC50 [1] [nM] | GI50 [2] [nM] | GI50 [3] [nM] | other results
CN1CCc2sc(C(=O)NCC(O)CN3CCc4ccccc4C3)cc2C1 (stereo unspecified) | 475 |  |  | 
O=C(NC[C@@H](O)CN1CCc2ccccc2C1)c1ccc2c(c1)CCN(C(=O)c1ccc(Br)cc1)C2 | 59 | 187 | 213 | 
O=C(NCC(O)CN1CCc2ccccc2C1)c1cc2c(s1)CCN(C(=O)Oc1ccccc1)C2 (stereo unspecified) | 50 |  |  | 
O=C(NC[C@H](O)CN1CCc2ccccc2C1)c1ccc2c(c1)CCN(C(=O)c1ccc(Br)cc1)C2 |  |  |  | inhibition [4]: Dose-dependent effect
O=C(NCC(O)CN1CCc2ccccc2C1)c1cc2c(s1)CCN(C(=O)c1ccc(C(F)(F)F)cc1)C2 (stereo unspecified) | 49 | 134 | 204 | 
O=C(NCC(O)CN1CCc2ccccc2C1)c1cc2c(s1)CCN(C(=O)CCc1ccccc1)C2 (stereo unspecified) | 47 | 185 | 304 | 
O=C(NCC(O)CN1CCc2ccccc2C1)c1cc2c(s1)CCN(c1ccccc1)C2 (stereo unspecified) | 260 |  |  | 
CN(C)c1ccc(C(=O)N2CCc3ccc(C(=O)NCC(O)CN4CCc5ccccc5C4)cc3C2)cc1 (stereo unspecified) | 40 |  |  | 
CN1CCc2[nH]c(C(=O)NCC(O)CN3CCc4ccccc4C3)cc2C1 (stereo unspecified) | 1900 |  |  | 
CC(c1ccccc1)N1CCc2sc(C(=O)NCC(O)CN3CCc4ccccc4C3)cc2C1 (stereo unspecified) | 60 | 172 | 436 | 
O=C(NCC(O)CN1CCc2ccccc2C1)c1cc2c(s1)CCN(C(=O)c1ccncc1)C2 (stereo unspecified) | 45 | 110 | 253 | 
CCCN1CCc2sc(C(=O)NCC(O)CN3CCc4ccccc4C3)cc2C1 (stereo unspecified) | 1100 |  |  | 
O=C(NC[C@H](O)CN1CCc2ccccc2C1)c1cc(NC2COC2)ncn1 |  | 106 | 212 | 
O=C(NCC(O)CN1CCc2ccccc2C1)c1cc2c(s1)CCN(C(=O)Cc1ccccc1)C2 (stereo unspecified) | 50 | 147 | 256 | 
O=C(NCC(O)CN1CCc2ccccc2C1)c1cc2c(s1)CCN(C(=O)c1ccccc1F)C2 (stereo unspecified) | 45 | 124 | 261 | 
O=C(NCC(O)CN1CCc2ccccc2C1)c1cc2c(s1)CCN(Cc1ccccc1)C2 (stereo unspecified) | 240 |  |  | 
O=C(NCC(O)CN1CCc2ccccc2C1)c1cc2c(s1)CCN(C(=O)c1ccccc1)C2 (stereo unspecified) | 39 | 154 | 184 | 
O=C(NCC(O)CN1CCc2ccccc2C1)c1cc2c(s1)CCN(C(=O)c1ccc(N3CCC3)cc1)C2 (stereo unspecified) | 44 |  |  | 
CN1CCc2sc(C(=O)NCC(O)CN3CCc4ccccc4C3)nc2C1 (stereo unspecified) | 1200 |  |  | 
O=C(NCC(O)CN1CCc2ccccc2C1)c1cc2c(s1)CCN(C1CCCCC1)C2 (stereo unspecified) | 130 |  |  | 
O=C(NCC(O)CN1CCc2ccccc2C1)c1cc2c(s1)CCN(C(=O)c1cccs1)C2 (stereo unspecified) | 37 | 168 | 324 | 
O=C(NCC(O)CN1CCc2ccccc2C1)c1cc2c(s1)CCN(C1CCOCC1)C2 (stereo unspecified) | 460 |  |  | 
CN(C)c1ccc(C(=O)N2CCc3cc(C(=O)NC[C@H](O)CN4CCc5ccccc5C4)ccc3C2)cc1.Cl |  |  |  | Cmax [5]: 14.3 ng/mL; Tmax [6]: 20 min; half-life [7]: 56.7 min; AUC [8]: 15.8 ng·h/mL
CN1CCc2oc(C(=O)NCC(O)CN3CCc4ccccc4C3)cc2C1 (stereo unspecified) | 1900 |  |  | 
COc1ccc(C(=O)N2CCc3cc(C(=O)NC[C@@H](O)CN4CCc5ccccc5C4)ccc3C2)cc1 | 33 | 213 | 333 | 
O=C(NCC(O)CN1CCc2ccccc2C1)c1cc2c(s1)CCN(S(=O)(=O)c1ccccc1)C2 (stereo unspecified) | 91 | 209 | 375 | 
COc1ccc(C(=O)N2CCc3cc(C(=O)NC[C@H](O)CN4CCc5ccccc5C4)ccc3C2)cc1.Cl |  |  |  | Cmax [5]: 102 ng/mL; Tmax [6]: 25 min; half-life [7]: 128 min; AUC [8]: 94.6 ng·h/mL

Now from value to compound, other results behind:

IC50 [1] [nM] | GI50 [2] [nM] | GI50 [3] [nM] | Compound | other results
31.5 | 166 | 314 | O=C(NCC(O)CN1CCc2ccccc2C1)c1cc2c(s1)CCN(C(=O)c1cccc(F)c1)C2 (stereo unspecified) | 
23 | 162 | 147 | O=C(NCC(O)CN1CCc2ccccc2C1)c1cc2c(s1)CCN(C(=O)c1ccc(Cl)cc1)C2 (stereo unspecified) | 
11 | 34 | 45 | O=C(NCC(O)CN1CCc2ccccc2C1)c1ccc2c(c1)CCN(C(=O)c1ccc(Br)cc1)C2 (stereo unspecified) | 
18 | 66 | 181 | O=C(NCC(O)CN1CCc2ccccc2C1)c1cc2c(s1)CCN(C(=O)c1ccc(Br)cc1)C2 (stereo unspecified) | 
17 | 92 | 128 | CN(C)c1ccc(C(=O)N2Cc3ccc(C(=O)NCC(O)CN4CCc5ccccc5C4)cc3C2)cc1 (stereo unspecified) | 
11 | 53 | 75 | CN(C)c1ccc(C(=O)N2CCc3cc(C(=O)NC[C@H](O)CN4CCc5ccccc5C4)ccc3C2)cc1 | 
32.5 | 110 | 135 | Cc1ccc(C(=O)N2CCc3sc(C(=O)NCC(O)CN4CCc5ccccc5C4)cc3C2)cc1 (stereo unspecified) | 
13 | 23 | 37 | COc1ccc(C(=O)N2CCc3cc(C(=O)NC[C@H](O)CN4CCc5ccccc5C4)ccc3C2)cc1 | 
23 | 101 | 169 | Cc1c(C(=O)NCC(O)CN2CCc3ccccc3C2)sc2c1CN(C(=O)c1ccc(N(C)C)cc1)CC2 (stereo unspecified) | 
25 | 135 | 258 | N#Cc1ccc(C(=O)N2CCc3sc(C(=O)NCC(O)CN4CCc5ccccc5C4)cc3C2)cc1 (stereo unspecified) | 
19 | 141 | 201 | O=C(NCC(O)CN1CCc2ccccc2C1)c1cc2c(s1)CCN(C(=O)c1ccc([N+](=O)[O-])cc1)C2 (stereo unspecified) | 
20 | 85.6 | 216 | COc1ccc(C(=O)N2CCc3sc(C(=O)NCC(O)CN4CCc5ccccc5C4)cc3C2)cc1 (stereo unspecified) | 
30 | 126 | 199 | O=C(NCC(O)CN1CCc2ccccc2C1)c1cc2c(s1)CCN(C(=O)c1ccc(F)cc1)C2 (stereo unspecified) | 
17 | 36 | 70 | CN(C)c1ccc(C(=O)N2CCc3cc(C(=O)NCC(O)CN4CCc5ccccc5C4)ccc3C2)cc1 (stereo unspecified) | 
23 | 143 | 197 | CN(C)c1ccc(C(=O)N2CCc3sc(C(=O)NCC(O)CN4CCc5ccccc5C4)cc3C2)cc1 (stereo unspecified) | 
25 | 160 | 239 | O=C(NCC(O)CN1CCc2ccccc2C1)c1cc2c(s1)CCN(C(=O)c1ccco1)C2 (stereo unspecified) | 
19 | 89 | 193 | CC(=O)c1ccc(C(=O)N2CCc3sc(C(=O)NCC(O)CN4CCc5ccccc5C4)cc3C2)cc1 (stereo unspecified) | 
23 | 32 | 35 | COc1ccc(C(=O)N2CCc3cc(C(=O)NCC(O)CN4CCc5ccccc5C4)ccc3C2)cc1 (stereo unspecified) | 
19 | 186 | 415 | CC(C)(C)c1ccc(C(=O)N2CCc3sc(C(=O)NCC(O)CN4CCc5ccccc5C4)cc3C2)cc1 (stereo unspecified) | 
22 | 178 | 322 | O=C(NCC(O)CN1CCc2ccccc2C1)c1cc2c(s1)CCN(C(=O)c1ccc3ccccc3c1)C2 (stereo unspecified) | 
